From the NIST ThermoML archive (doi:10.1016/j.jct.2006.05.008)
± gives the expanded uncertainty stated by the source.

Assay: molar heat capacity at constant pressure
Conditions: 101.33 kPa, Small (less than 1 g) adiabatic calorimetry

CCCCn1cc[n+](C)c1.[Br-] [1-butyl-3-methylimidazolium bromide]
Conditions	molar heat capacity at constant pressure [J/K/mol]
5 K, Crystal	0.594 ± 0.036
5.112 K, Crystal	0.6398 ± 0.033
5.416 K, Glass	1.391 ± 0.048
5.455 K, Crystal	0.7976 ± 0.035
5.698 K, Glass	1.608 ± 0.044
5.764 K, Crystal	0.9598 ± 0.039
6.014 K, Glass	1.871 ± 0.055
6.078 K, Crystal	1.144 ± 0.042
6.368 K, Glass	2.187 ± 0.061
6.428 K, Crystal	1.37 ± 0.046
6.758 K, Glass	2.559 ± 0.068
6.809 K, Crystal	1.648 ± 0.044
7.151 K, Glass	2.969 ± 0.075
7.192 K, Crystal	1.957 ± 0.057
7.546 K, Glass	3.418 ± 0.081
7.578 K, Crystal	2.288 ± 0.061
7.943 K, Glass	3.889 ± 0.088
7.966 K, Crystal	2.656 ± 0.068
8.343 K, Glass	4.396 ± 0.096
8.356 K, Crystal	3.052 ± 0.075
8.743 K, Glass	4.921 ± 0.1
8.747 K, Crystal	3.473 ± 0.081
9.141 K, Crystal	3.927 ± 0.088
9.142 K, Glass	5.507 ± 0.11
9.535 K, Crystal	4.4 ± 0.094
9.542 K, Glass	6.116 ± 0.12
9.931 K, Crystal	4.904 ± 0.1
9.941 K, Glass	6.777 ± 0.13
10 K, Crystal	5 ± 0.1
10.43 K, Crystal	5.581 ± 0.11
10.45 K, Glass	7.669 ± 0.15
11.04 K, Crystal	6.447 ± 0.12
11.06 K, Glass	8.866 ± 0.16
11.65 K, Crystal	7.367 ± 0.14
11.68 K, Glass	9.609 ± 0.17
12.26 K, Crystal	8.338 ± 0.15
12.33 K, Glass	10.33 ± 0.18
12.88 K, Crystal	9.361 ± 0.16
12.97 K, Glass	11.38 ± 0.19
13.49 K, Crystal	10.43 ± 0.18
13.59 K, Glass	12.45 ± 0.2
14.11 K, Crystal	11.52 ± 0.19
14.22 K, Glass	13.57 ± 0.22
14.73 K, Crystal	12.65 ± 0.2
14.85 K, Glass	14.68 ± 0.23
15 K, Crystal	13.15 ± 0.21
15.46 K, Crystal	14.04 ± 0.22
15.59 K, Glass	16.03 ± 0.24
16.3 K, Crystal	15.65 ± 0.23
16.44 K, Glass	17.61 ± 0.26
17.14 K, Crystal	17.33 ± 0.25
17.29 K, Glass	19.2 ± 0.27
17.98 K, Crystal	19.01 ± 0.27
18.14 K, Glass	20.83 ± 0.29
18.82 K, Crystal	20.74 ± 0.28
18.99 K, Glass	22.44 ± 0.3
19.66 K, Crystal	22.48 ± 0.3
19.84 K, Glass	24.05 ± 0.31
20 K, Crystal	23.22 ± 0.3
20.8 K, Crystal	24.92 ± 0.31
20.98 K, Glass	26.32 ± 0.33
22.23 K, Crystal	27.96 ± 0.33
22.44 K, Glass	29.08 ± 0.34
23.67 K, Crystal	30.95 ± 0.35
23.89 K, Glass	31.88 ± 0.35
25 K, Crystal	33.71 ± 0.36
25.11 K, Crystal	33.93 ± 0.36
25.34 K, Glass	34.61 ± 0.36
26.55 K, Crystal	36.89 ± 0.37
26.79 K, Glass	37.3 ± 0.37
28 K, Crystal	39.85 ± 0.37
28.25 K, Glass	39.98 ± 0.37
29.46 K, Crystal	42.71 ± 0.37
29.71 K, Glass	42.64 ± 0.37
30 K, Crystal	43.79 ± 0.32
30.91 K, Crystal	45.58 ± 0.33
31.17 K, Glass	45.28 ± 0.33
32.37 K, Crystal	48.31 ± 0.34
32.64 K, Glass	47.85 ± 0.34
33.83 K, Crystal	50.92 ± 0.36
34.1 K, Glass	50.34 ± 0.35
35 K, Crystal	52.97 ± 0.37
35.29 K, Crystal	53.48 ± 0.37
35.56 K, Glass	52.74 ± 0.37
36.75 K, Crystal	55.93 ± 0.38
37.02 K, Glass	55.06 ± 0.38
38.21 K, Crystal	58.33 ± 0.39
38.48 K, Glass	57.36 ± 0.39
39.67 K, Crystal	60.64 ± 0.41
39.95 K, Glass	59.57 ± 0.4
40 K, Crystal	61.09 ± 0.41
41.38 K, Crystal	63.18 ± 0.42
41.66 K, Glass	62.09 ± 0.41
43.35 K, Crystal	66.08 ± 0.43
43.62 K, Glass	64.96 ± 0.43
45 K, Crystal	68.34 ± 0.44
45.33 K, Crystal	68.81 ± 0.44
45.59 K, Glass	67.7 ± 0.44
47.31 K, Crystal	71.45 ± 0.46
47.56 K, Glass	70.47 ± 0.45
49.28 K, Crystal	73.96 ± 0.47
49.53 K, Glass	73.04 ± 0.47
50 K, Crystal	74.81 ± 0.47
51.25 K, Crystal	76.33 ± 0.48
51.5 K, Glass	75.54 ± 0.48
53.22 K, Crystal	78.7 ± 0.49
53.47 K, Glass	77.99 ± 0.49
55.2 K, Crystal	80.87 ± 0.5
55.43 K, Glass	80.39 ± 0.5
57.18 K, Crystal	82.96 ± 0.51
57.4 K, Glass	82.69 ± 0.51
59.15 K, Crystal	84.96 ± 0.53
59.37 K, Glass	85.02 ± 0.53
60 K, Crystal	85.89 ± 0.5
61.12 K, Crystal	87.04 ± 0.53
61.34 K, Glass	87.33 ± 0.54
63.1 K, Crystal	89.03 ± 0.55
63.31 K, Glass	89.56 ± 0.55
65.08 K, Crystal	90.98 ± 0.55
65.29 K, Glass	91.73 ± 0.56
67.06 K, Crystal	92.73 ± 0.56
67.27 K, Glass	93.78 ± 0.57
69.04 K, Crystal	94.46 ± 0.57
69.25 K, Glass	95.85 ± 0.58
70 K, Crystal	95.2 ± 0.58
71.02 K, Crystal	96.12 ± 0.58
71.23 K, Glass	97.82 ± 0.59
73.01 K, Crystal	97.71 ± 0.59
73.21 K, Glass	99.78 ± 0.6
75 K, Crystal	99.35 ± 0.6
75.2 K, Glass	101.73 ± 0.61
76.99 K, Crystal	101.08 ± 0.6
77.19 K, Glass	103.84 ± 0.62
78.99 K, Crystal	102.78 ± 0.61
79.19 K, Glass	105.86 ± 0.63
79.88 K, Crystal	103.13 ± 0.62
80 K, Crystal	103.3 ± 0.58
80.98 K, Crystal	104.4 ± 0.62
81.18 K, Glass	107.71 ± 0.64
81.99 K, Glass	108.36 ± 0.64
82.98 K, Crystal	105.64 ± 0.63
83.34 K, Crystal	105.95 ± 0.63
84.53 K, Glass	110.36 ± 0.65
84.99 K, Crystal	106.91 ± 0.64
85.34 K, Crystal	107.22 ± 0.64
86.53 K, Glass	112.03 ± 0.66
87.34 K, Crystal	108.66 ± 0.64
88.52 K, Glass	113.8 ± 0.67
89.34 K, Crystal	110.09 ± 0.65
90 K, Crystal	110.5 ± 0.67
90.52 K, Glass	115.58 ± 0.66
91.34 K, Crystal	111.54 ± 0.65
92.52 K, Glass	117.14 ± 0.67
93.34 K, Crystal	112.75 ± 0.65
94.51 K, Glass	118.71 ± 0.67
95.34 K, Crystal	114.08 ± 0.66
96.52 K, Glass	120.45 ± 0.68
97.35 K, Crystal	115.46 ± 0.66
98.52 K, Glass	121.83 ± 0.69
99.35 K, Crystal	116.72 ± 0.67
100 K, Crystal	117.1 ± 0.67
100.53 K, Glass	123.29 ± 0.69
101.36 K, Crystal	118.12 ± 0.67
102.54 K, Glass	125.09 ± 0.7
103.37 K, Crystal	119.58 ± 0.68
104.55 K, Glass	126.48 ± 0.71
105.39 K, Crystal	120.44 ± 0.68
106.56 K, Glass	127.9 ± 0.71
107.41 K, Crystal	121.58 ± 0.69
108.57 K, Glass	129.45 ± 0.72
109.43 K, Crystal	122.78 ± 0.69
110 K, Crystal	123.1 ± 0.67
110.59 K, Glass	130.89 ± 0.72
111.44 K, Crystal	123.99 ± 0.7
112.61 K, Glass	132.26 ± 0.73
113.47 K, Crystal	125.16 ± 0.7
114.64 K, Glass	133.7 ± 0.73
115.5 K, Crystal	126.62 ± 0.71
116.67 K, Glass	135.05 ± 0.74
117.53 K, Crystal	127.63 ± 0.7
118.69 K, Glass	136.36 ± 0.75
119.57 K, Crystal	128.57 ± 0.71
120 K, Crystal	128.8 ± 0.75
120.72 K, Glass	137.61 ± 0.75
121.6 K, Crystal	129.71 ± 0.72
